This is an account of results in paper PMC5546207 (Cancer discovery, 2017).

Read-outs that look alike come from different tables or passages of the source.

One data set relates to patients. To be noted: cited from earlier work; for incidence of hyperglycemia: single agent.
The nature of a further data set: Plasma pharmacokinetics. The class given is in vivo, human. To be noted: for AUC / Cmax / Tmax: human, plasma, oral; for AUC: AUCtau [mean ± standard deviation]; for Cmax: Cmax [mean ± standard deviation]; for Tmax: Tmax [median (range)].
[1] abbreviates: 300 mg alpelisib at steady state, triple combination.
The mark [2] stands for this setting: 200 mg encorafenib at steady state, dual combination.
Setting [3] is: 200 mg encorafenib in the presence of 300 mg alpelisib, steady state, triple combination.

Consider `Cc1nc(NC(=O)N2CCC[C@H]2C(N)=O)sc1-c1ccnc(C(C)(C)C(F)(F)F)c1` [alpelisib], for which the incidence of hyperglycemia in the data set on patients (all grade, patients with solid tumors) is listed as 47%. In addition, the incidence of hyperglycemia in the data set on patients (grade 3/4, patients with solid tumors) was 24%. For the same compound, in “Plasma pharmacokinetics” (setting [1]), the AUC (commonly the area under the concentration-time curve, a measure of exposure) was 25100 ng·h/mL and the highest concentration (Cmax) (in general, the maximum level reached in the sampled fluid or tissue) is 2740 ± 520 ng/mL. Besides, the “exposure affected by encorafenib and cetuximab” value in “Plasma pharmacokinetics” (triple-combination therapy group) is recorded as “not affected”.
As to `COC(=O)N[C@@H](C)CNc1nccc(-c2cn(C(C)C)nc2-c2cc(Cl)cc(NS(C)(=O)=O)c2F)n1` [encorafenib], the “single agent MTD/RP2D” value with patients (first-in-human study) was 450 mg. In addition, the “exposure vs dual-combination therapy group” value in “Plasma pharmacokinetics” (200 mg encorafenib in the presence of 100 mg alpelisib) was “similar”. Also, in “Plasma pharmacokinetics” (dual-combination therapy group), the “drug–drug interaction between encorafenib and cetuximab” value is “No evidence of drug–drug interaction”. In the data set “Plasma pharmacokinetics” (setting [2]), the exposure (AUC) turned out to be 7170 ± 2890 ng·h/mL; the Cmax came out at 1430 ± 824 ng/mL; the Tmax (in general, the time at which the peak concentration occurs) was found to be 2 h. Besides, in “Plasma pharmacokinetics” (setting [3]), the AUC came to 12900 ng·h/mL, the Cmax came out at 2390 ± 2080 ng/mL and the time of peak concentration (Tmax) amounted to 3 h.
